Results from publication PMC11864979, “First-in-class ultralong-target-residence-time p38α inhibitors as a mitosis-targeted therapy for colorectal cancer” (Nature Cancer, 2025).
Several values for one entry are separate records, joined by “and”; a condition that tells them apart may be missing. Equal values may be shown once.

Columns and labels:
PDO1 = assay: cell viability in patient-derived CRC organoids PDO1; assay type: cell-based, human; conditions: Fig. 3b, replicates
Procedure: (§1) For in vitro treatment studies, organoids were mechanically dissociated and digested using TrypLE supplemented with 100 µg ml^−1 DNaseI and 10.5 µM Y-27632 dihydrochloride (Invitrogen) at 37 °C. A total of 1,000–2,000 single cells were plated per well in white 96-well plates (Greiner) in culture medium containing 10% GFR Matrigel or Cultrex BME. The treatment with doxycycline (5 µg ml^−1), pharmacological inhibitors or corresponding volumes of DMSO was started 24 h after plating. Doxycycline was obtained from Sigma-Aldrich. […] Cell viability was measured by means of CellTiter-Glo 3D or CellTiter-Glo 2.0 reagent (Promega) according to the manufacturers’ instructions and the Infinite M Plex reader (Tecan, i-control version 3.9.1 software). Results were normalized to vehicle (DMSO) or to shNC. For cell-doubling assays, the cell number was quantified at the corresponding time points using Guava EasyCyte flow cytometer (Luminex, CytoSoft v5.2 software).

BAP organoids = assay: cell viability in BAP organoids; assay type: cell-based, mouse
Procedure: (§2) A total of 1,000–2,000 single cells were plated per well in white 96-well plates (Greiner) in culture medium containing 10% GFR Matrigel or Cultrex BME. The treatment with doxycycline (5 µg ml^−1), pharmacological inhibitors or corresponding volumes of DMSO was started 24 h after plating. Doxycycline was obtained from Sigma-Aldrich. […] Results were normalized to vehicle (DMSO) or to shNC. For cell-doubling assays, the cell number was quantified at the corresponding time points using Guava EasyCyte flow cytometer (Luminex, CytoSoft v5.2 software).

PDO4 = assay: cell viability in patient-derived CRC organoids PDO4; assay type: cell-based, human; conditions: Fig. 3e, replicates
Procedure: as §1

PDO3 = assay: cell viability in patient-derived CRC organoids PDO3; assay type: cell-based, human; conditions: Fig. 3d, replicates
Procedure: as §1

PDO2 = assay: cell viability in patient-derived CRC organoids PDO2; assay type: cell-based, human; conditions: Fig. 3c, replicates
Procedure: as §1

[1] = in vivo pharmacokinetic studies in mice (plasma, LC-MS); parameters: species or system mouse
Procedure: No mice were excluded during treatment studies. […] GFP imaging of tumors was performed using a Hamamatsu imaging system. For quantification of compounds in the murine plasma, 20 μl of tail-vein blood was diluted with 80 μl of heparin solution, before 200 μl of ice-cold acetonitrile with a defined internal standard was added. The samples were sonicated and centrifuged and the supernatant was subjected to liquid chromatography-mass spectrometry quantification. Full blood analyses were performed with the Sysmex KX-21N hematology analyzer.

KAP^2D cells [2] = assay: EdU incorporation in KAP^2D cells; assay type: cell-based, mouse; conditions: replicates, experiment and repetition
Procedure: (§3) Immunofluorescence staining on cells and organoids was performed on glass coverslips or tissue culture chambers (Sarstedt). Organoids were plated in medium containing 10% Matrigel or Cultrex BME. The cultures were fixed with 4% paraformaldehyde and stained with specific antibodies and DAPI (Vector Labs). All used antibodies and dilutions are listed in the Nature Portfolio Reporting Summary. For analyzing DNA synthesis, the Molecular Probes Click-iT EdU Alexa Fluor 555 kit was used 24 h after EdU incorporation with DAPI counterstaining. SA-β-Gal staining of cells was performed in cell culture dishes (cells) or tissue culture chambers (organoids) after fixation with 0.5% glutaraldehyde as described above. Human cultures were incubated with X-Gal solution at pH 6.0 for ~4 h.

KAP^2D cells [3] = assay: P-H3^S10 / α-tubulin staining, mitotic phases in KAP^2D cells; assay type: cell-based, mouse; conditions: replicates, experiment and repetition
Procedure: as §3, with “h. […] Positive cells were quantified using ImageJ version 1.53a software. The analysis of mitosis was performed with an LSM800 Airyscan (Zeiss) microscope (ZEN version 3.0 software). An Airyscan autofilter processing was applied before image analysis.” for “h.”

KMP organoids = assay: cell viability in KMP organoids; assay type: cell-based, mouse
Procedure: as §2

PDO5 = assay: cell viability in patient-derived CRC organoids PDO5; assay type: cell-based, human; conditions: Fig. 3f, replicates
Procedure: as §1

[4] = mouse, plasma, oral administration in mice, 20 mg kg^−1
[5] = oral administration in mice, 20 mg kg^−1

CNC(=O)c1ccc2c(c1)C(=O)c1ccc(Nc3ccc(F)c(NC(=O)C4CC4)c3)cc1CC2 [Compound 2015]
Cell viability (%) (PDO1; 0.5 µM): 8.84% and 9.77% | Cell viability (%) (PDO1; 1 µM): 9.82% and 5.19% | viability at 0.5 µM (PDO1; Homo sapiens, 0.5 µM): 10.1% | viability at 1 µM (PDO1; Homo sapiens, 1 µM): 7.92% | therapeutic effect in BAP organoids (in words) (BAP organoids; 4 days): increased responsiveness | Cell viability (%) (BAP organoids; Fig. 2j, 0,5 µM, replicates, 5 µM): 18.53% and 25.34% | Cell viability (%) (BAP organoids; Fig. 2j, 0,25 µM, replicates): 71.10% and 78.07% and 119.22% | Cell viability (%) (BAP organoids; Fig. 2j, 1 µM, replicates): 28.06% and 32.78% | viability at 5 µM (BAP organoids; Mus musculus, Fig. 2j, 0,5 µM, replicates): 21.1% | viability at 1 µM (BAP organoids; Mus musculus, Fig. 2j, 1 µM, replicates): 29.7% | Cell viability (%) (PDO4; 0,5 µM, 5 µM): 13.84% and 14.01% | Cell viability (%) (PDO4; 0,25 µM, 25 µM): 62.38% and 62.93% | Cell viability (%) (PDO4; 1 µM): 11.63% and 11.83% | viability at 25 µM (PDO4; Homo sapiens, 0,25 µM): 60% | viability at 1 µM (PDO4; Homo sapiens, 1 µM): 11.2% | Cell viability (%) (PDO3; 0,5 µM, 5 µM): 69.11% and 51.45% | Cell viability (%) (PDO3; 0,25 µM, 25 µM): 56.63% and 78.13% and 87.76% | Cell viability (%) (PDO3; 1 µM): 56.28% and 48.78% | viability at 5 µM (PDO3; Homo sapiens, 72 h, 0,5 µM): 50.1% | viability at 1 µM (PDO3; Homo sapiens, 72 h, 1 µM): 53% | Cell viability (%) (PDO2; 0,5 µM, 5 µM): 17.11% and 9.01% and 7.93% | Cell viability (%) (PDO2; 0,25 µM): 30.33% and 26.25% | Cell viability (%) (PDO2; 1 µM): 8.07% and 8.23% | viability at 1 µM (PDO2; Homo sapiens, 1 µM): 10.5% | Plasma concentration ([1]; 0 min of treatment, individual animals): 0.00 µM | Plasma concentration ([1]; 45 min of treatment, individual animals): 20.46 µM and 14.73 µM | Plasma concentration ([1]; 90 min of treatment, individual animals): 17.75 µM and 16.83 µM | Plasma concentration ([1]; 180 min of treatment, individual animals): 13.04 µM and 13.78 µM | Plasma concentration ([1]; 480 min of treatment, individual animals): 2.27 µM and 3.36 µM | Plasma concentration ([1]; 1440 min of treatment, individual animals): 0.20 µM and 0.04 µM (2×) | concentration at 0 min ([1]; mouse, plasma, oral, 20 mg kg^−1, 0 min of treatment, individual animals): 0 nM | concentration at 45 min ([1]; mouse, plasma, oral, 20 mg kg^−1, 45 min of treatment, individual animals): 26.8 µM | concentration at 90 min ([1]; mouse, plasma, oral, 20 mg kg^−1, 90 min of treatment, individual animals): 25.2 µM | concentration at 180 min ([1]; mouse, plasma, oral, 20 mg kg^−1, 180 min of treatment, individual animals): 17 µM | concentration at 480 min ([1]; mouse, plasma, oral, 20 mg kg^−1, 480 min of treatment, individual animals): 4.26 µM | AUC [1, 4]: 121 µM·h | half-life [1, 4]: 2.68 h | C^max [1, 5]: 20.7 µM | t^max [1, 5]: 45 min | EdU+ cells (KAP^2D cells [2]; Fig. 4j): 50.19% and 55.77% and 45.40% and 44.63% and 45.42% and 38.28% and 36.62% and 49.78% | EdU+ cells (KAP^2D cells [2]; Fig. 5b): 7.76% and 6.30% and 5.41% and 9.24% and 8.18% and 6.48% and 4.44% and 6.67% | Anaphase, % (of fully P-H3S10+ cells) (KAP^2D cells [3]; Fig. 4f): 0.00% | Metaphase, % (of fully P-H3S10+ cells) (KAP^2D cells [3]; Fig. 4f): 0.00% | Multipolar mitosis, % (of fully P-H3S10+ cells) (KAP^2D cells [3]; Fig. 4f): 75.00% and 72.55% and 66.43% and 67.83% and 80.50% and 84.38% | Telophase, % (of fully P-H3S10+ cells) (KAP^2D cells [3]; Fig. 4f): 1.72% and 0.65% and 0.70% and 0.00% and 1.89% and 0.78% | P-H3S10+ cells, fully positive (KAP^2D cells [3]; Fig. 4d): 12.93% and 17.02% and 15.43% and 13.33% and 14.34% and 14.40% | P-H3S10+ cells, partially positive (KAP^2D cells [3]; Fig. 4d): 12.04% and 13.24% and 14.13% and 9.97% and 10.28% and 12.15% | therapeutic effect in KMP organoids (in words) (KMP organoids; 4 days): increased responsiveness | Cell viability (%) (KMP organoids; Fig. 2i, 0,5 µM, replicates, 5 µM): 17.63% and 7.81% and 29.91% | Cell viability (%) (KMP organoids; Fig. 2i, 0,25 µM, replicates): 27.91% and 21.06% | Cell viability (%) (KMP organoids; Fig. 2i, 1 µM, replicates): 17.15% and 26.00% | viability at 1 µM (KMP organoids; Mus musculus, Fig. 2i, 1 µM, replicates): 27.8% | Cell viability (%) (PDO5; 0,5 µM, 5 µM): 16.61% and 12.02% | Cell viability (%) (PDO5; 0,25 µM, 25 µM): 73.65% and 55.49% | Cell viability (%) (PDO5; 1 µM): 16.85% and 11.03% | viability at 1 µM (PDO5; Homo sapiens, 1 µM): 12.7%
